Test results from US6787527B1, “Methods of preventing and treating HIV infection” (Duke University, priority 1994, dated 2004).

Assays:
HIV-1-IIIB [1] = assay: HIV-1 infection of leukemia cell lines Jurkat, CEM, HL-60, U937, supernatant medium RT activity; type: cell-based; details: HL-60, U937 cell lines
Experimental: (§1) Monocytes and lymphocytes were isolated and cultured as previously described (J. Exp. Med. 174:1477 (1991)). Briefly, monocytes were isolated by sequential ficoll-sodium diazotrate and Percoll gradients with subsequent adherence to cultureware plastic, and then cultured in Dulbecco's modified Eagle medium (GIBCO, Grand Islands, N.Y.) with 10% unheated human serum. Lymphocytes were from ficoll-sodium diazotrate gradients, and were cultured with anti-CD3/anti-CD28 antibody and subsequently IL-2. Reverse transcription (RT) was measured as described (Weinberg et al, J. Exp. Med. 174:1477 (1991)) using a phosphoimager device for quantification. Leukemia cell lines Jurkat, CEM, HL-60, and U937 were obtained from American Type Culture Collection (Rockville, Md.). The cells were cultured in RPMI-1640 with 10% fetal bovine serum (Hyclone, Logan, Utah). Cobalamins were obtained from Sigma Chemical Company (St. Louis, Mo.). The cobalamins had extremely low endotoxin content, as determined by Limulus amebocyte lysate testing (Whitaker Bioproducts, Walkerville, Md.). When tested as a 3 mM solution, the cobalamins had less than 0.25 EU/ml. Cobalamins were not toxic for Mo, Mac, Lym, and leukemia cell line cells, as determined by morphology under phase microscopy, Wright staining of methanol-fixed cells, trypan blue exclusion, and thymidine incorporation were carried out in accordance with standard techniques.
Cells of the T lymphoblast cell line Jurkat and CEM, the myeloblast cell line HL-60, and the monoblast cell line U937 were inoculated with HIV-1-IIIB (MOI ˜0.1) and cultured for with the designated cobalamin for 10-20 days. Supernatant medium RT was then measured. Results are provided as RT activity (mean±SEM of triplicates) and are derived from one experiment.

HIV-1-IIIB [2] = assay: HIV-1 infection of PBL, supernatant medium RT activity; type: cell-based; details: added at viral inoculation and left in throughout culture
Experimental: as §1
PBL were inoculated with HIV-1-IIIB (MOI ˜0.1) and cultured with the designated cobalamin for 15-25 days. Supernatant medium RT was then measured. Results are provided as RT activity (mean±SEM of triplicates) and are derived from one experiment.

HIV-1-BaL [3] = assay: HIV-1 infection of monocytes / mononuclear phagocytes (Mo, Mac), supernatant medium RT activity; type: cell-based; details: for inhibition of productive HIV-1 infection: Mo, Mac, added at viral inoculation and left in throughout culture
Experimental: as §1
Monocytes were inoculated at time zero with HIV-1-Bal (Weinberg et al, J. Exp. Med. 174:1477 (1991)) (MOI ˜0.1)and cultured with the designated cobalamin for 7-14 days. Supernatant medium RT was then measured (Weinberg et al, J. Exp. Med. 174:1477 (1991)). Results are provided as RT activity (mean±SEM of triplicates)and are derived from one experiment.

[4] = biological target: T1, recombinant CD4 with gp120 from HIV-1-IIIB (UniProt P01730+P04578); assay: CD4-gp120 binding, gp120 from HIV-1-IIIB
T1 construct: gp120 from HIV-1-IIIB
Experimental: (§2) Cobalamins were incubated with CD4 and gp120 from HIV-1-IIIB in wells of microtiter wells, and binding was assessed as previously described. […] Serum from an HIV-1-infected person containing anti-gp120 antibody served as the “positive control”.
(§3) To determine whether cobalamins modified the binding of HIV-1 gp120 to CD4, the abilities of CN-Cbl, OH-Cbl, Me-Cbl, and Ado-Cbl to inhibit binding of recombinant CD4 with gp120 from HIV-1-IIIB or HIV-1-MN were tested (FIG. 2). No inhibition of binding was observed.

[5] = biological target: T2, recombinant CD4 with gp120 from HIV-1-MN (UniProt P01730+P05877); assay: CD4-gp120 binding, gp120 from HIV-1-MN
T2 construct: recombinant CD4 with gp120 from HIV-1-IIIB or HIV-1-MN
Experimental: as §2, §3

RT = biological target: T3, RT (Human immunodeficiency virus type 1 group M subtype B, UniProt P04585); assay: RT activity in cell-free medium; type: biochemical, HIV-1; details: 1 to 1000 μM added to cell-free medium containing RT
T3 construct: added to cell-free medium containing RT

[6] = tested on: U1 cells and OM-10.1 cells (HIV-1 integrated provirus); assay: TNF- or PMA-induced viral RT expression in latently-infected leukemia cells; type: cell-based, human; details: 250 μM; 500 U/ml TNF or 80 nM PMA; U1 and OM-10.1 cells
Experimental: To determine whether OH-Cbl would inhibit the ability of latently-infected leukemia cells to produce RT after stimulation with tumor necrosis factor (TNF) or phorbol myristate acetate (PMA), U1 (U937 monoblastic cell line with HIV-1 integrated provirus) cells (NIH AIDS Repository) and OM-10.1 cells (HL-60 myelobastic cell line with HIV-1 integrated provirus) (Dr. Clay Smith, Duke University, Durham, N.C.) were treated with 500 U/ml TNF or 80 nM PMA (with or without 250 μM OH-Cbl).

[7] = humans, 5 to 7 grams by bolus intravenous infusion; cited from earlier work
HIV-1-BaL [8] = assay: Syncytium (multinucleated giant cell) formation in HIV-1-inoculated monocytes; type: cell-based; details: 67 μM, HIV-1-BaL MOI ~0.1, 14 days
Experimental: OH-Cbl, Me-Cbl, Ado-Cbl, and CN-Cbl were not toxic for Mo, Mac, PBL, or cells of the human leukemia cell lines Jurkat, CEM, HL-60, or U937 at concentrations ≦600 μM. When added to the cultures of Mo, Mac, or PBL at the time of viral inoculation on day zero and left in throughout the culture period, there was potent inhibition of productive infection as judged by supernatant medium RT activity (see FIG. 1). Further evidence of the cobalamin inhibitory effect was derived from studies examining syncytium formation. Populations of monocytes not inoculated with virus were generally mononuclear, while those inoculated with HIV-1-BaL (MOI ˜0.1) cultured (14 days) without OH-Cbl (67 μM) had numerous multinucleated giant cells (syncytium).

[9] = tested on: Mo, Mac, PBL, human leukemia cell lines Jurkat, CEM, HL-60, U937; assay: Toxicity for cells (morphology, Wright staining, trypan blue exclusion, thymidine incorporation); type: cell-based; details: concentrations ≦600 μM
Experimental: as §1, with “When tested as a 3 mM solution, the cobalamins had less than 0.25 EU/ml.” left out

Compound	inhibition of HIV-1 infection (HIV-1-IIIB [1])	inhibition of productive HIV-1 infection (HIV-1-IIIB [2])	inhibition of productive HIV-1 infection (HIV-1-BaL [3])	inhibition of CD4-gp120 binding [4]	inhibition of CD4-gp120 binding [5]	inhibition of RT activity (RT)	inhibition of expression of induced viral RT [6]	resultant serum levels [7]	side effects [7]	inhibition of syncytium formation (HIV-1-BaL [8]) [%]	inhibition of HIV-1 infection (HIV-1-BaL [3]; Mo incubated simultaneously with 250 μM and HIV-1 for 4 hours, washed, cultured 10 days)	inhibition of subsequent RT production (HIV-1-BaL [3]; Mo inoculated and cultured 6 days, washed, then cultured with 250 μM)	inhibition of RT (HIV-1-BaL [3]; Mo pretreated with 250 μM for 24 hours, washed, then inoculated with HIV-1-BaL)	toxicity for cells [9]	inhibitory effect in vitro (HIV-1-BaL [3]; in vitro, summary statement)
C/C1=C2/[N-]C([C@H](CC(N)=O)[C@@]2(C)CCC(=O)NC[C@@H](C)OP(=O)([O-])O[C@H]2[C@@H](O)[C@@H](n3cnc4cc(C)c(C)cc43)O[C@@H]2CO)[C@]2(C)N=C(/C(C)=C3N=C(/C=C4N=C1[C@@H](CCC(N)=O)C\4(C)C)[C@@H](CCC(N)=O)[C@]\3(C)CC(N)=O)[C@@H](CCC(N)=O)[C@]2(C)CC(N)=O.[CH2-][C@H]1O[C@@H](n2cnc3c(N)ncnc32)[C@@H](O)[C@@H]1O.[Co+3] [Ado-Cbl, adencobalamin]	did not inhibit	inhibited	inhibited	No inhibition	No inhibition	inhibition of RT activity was not observed	–	–	–	–	–	–	–	–	–
C/C1=C2/[N-][C@H]([C@H](CC(N)=O)[C@@]2(C)CCC(=O)NC[C@@H](C)OP(=O)([O-])O[C@H]2[C@@H](O)[C@@H](n3cnc4cc(C)c(C)cc43)O[C@@H]2CO)[C@]2(C)N=C(/C(C)=C3N=C(/C=C4N=C1[C@@H](CCC(N)=O)C\4(C)C)[C@@H](CCC(N)=O)[C@]\3(C)CC(N)=O)[C@@H](CCC(N)=O)[C@]2(C)CC(N)=O.[CH3-].[Co] [Me-Cbl]	did not inhibit	inhibited	inhibited	No inhibition	No inhibition	inhibition of RT activity was not observed	–	–	–	–	–	–	–	–	–
C/C1=C2/[N-][C@H]([C@H](CC(N)=O)[C@@]2(C)CCC(=O)NC[C@@H](C)OP(=O)([O-])O[C@H]2[C@@H](O)[C@@H](n3cnc4cc(C)c(C)cc43)O[C@@H]2CO)[C@]2(C)N=C(/C(C)=C3N=C(/C=C4N=C1[C@@H](CCC(N)=O)C\4(C)C)[C@@H](CCC(N)=O)[C@]\3(C)CC(N)=O)[C@@H](CCC(N)=O)[C@]2(C)CC(N)=O.[Co+3].[OH-] [OH-Cbl, hydroxocobalamin]	did not inhibit	inhibited	inhibited	No inhibition	No inhibition	inhibition of RT activity was not observed	did not inhibit	μM to mM	minimal	100	no inhibition	no inhibition	approximately 80%	not toxic	–
cyanocobalamin [CN-Cbl]	–	little or no inhibitory activity	little or no inhibitory activity	No inhibition	No inhibition	inhibition of RT activity was not observed	–	–	–	–	–	–	–	–	little or no inhibitory effect
